Assay results reported in patent publication US20090137811A1 (published 2009).
Values joined by “and” are separate entries in the source; they are usually repeats but may differ in a detail not shown here. Identical values can stand only once.

melting point: 204 to 207 °C and 203 to 206 °C
SMILES: COc1cc2c(cc1OC)C(=O)C(C(=O)c1ccncc1)C2 (stereo not shown)
